The record followed here is patent US6686469B2, “Pesticidal pyrimidine-derivatives” (Novartis Animal Health US, Inc., priority 1999, dated 2004).

The subject of the first data set is Heliothis virescens. Description: Activity against Heliothis virescens. It counts as in vivo. Particulars: young soya plants sprayed with 100 ppm active ingredient, first-stage caterpillars, 6 days later. On the procedure: Young soya plants are sprayed with an aqueous emulsion spray mixture containing 100 ppm of active ingredient, when the spray coating has dried on they are colonised with 10 caterpillars of the first stage of Heliothis virescens and then placed in a plastic container. The percentage reduction of the population and of the feeding damage (% response) is determined 6 days later by comparing the total number of dead caterpillars and the feeding damage on the treated plants with those on the untreated plants.
`Fc1cccc(Cl)c1-c1ncc(-c2ccc(-c3ccc(C(F)(F)F)cc3)cc2)cn1` [Compound 1.17]: the “efficacy: percentage reduction of the population and of the feeding damage (% response)” value is reported as “over 80%”.

Tested on in the next data set: not given
Test: not given
Conditions: not given
For `CCNc1nc(-c2c(F)cccc2F)ncc1-c1ccc(-c2ccc(C(F)(F)F)cc2)cc1` [Compound 1.67], the melting point is 189 to 190 °C.

As to `Fc1cccc(F)c1-c1nccc(-c2ccc(-c3ccc(OC(F)(F)F)cc3)cc2)n1` [Compound 2.3], the melting point fell in the range of 102 to 103 °C.

For `Clc1cc(Cl)cc(-c2ccc(-c3cnc(-c4c(Cl)cccc4Cl)nc3)cc2)c1` [Compound 1.9], the melting point was over 220 °C.

`CC(C)(C)c1ccc(-c2ccc(-c3cnc(-c4c(Cl)cccc4Cl)nc3)cc2)cc1` [Compound 1.10] gave a melting point of 200 to 202 °C.

On to `Fc1cccc(Cl)c1-c1ncc(-c2ccc(-c3ccc(Cl)c(Cl)c3)cc2)cn1` [Compound 1.13], for which the melting point was in the range of 196 to 199 °C.

Molecule `Fc1cccc(F)c1-c1ncc(-c2ccc(-c3cccc(C(F)(F)F)c3)cc2)cn1` [Compound 1.18] came in with a melting point of 217 to 218 °C.

`Fc1cccc(F)c1-c1nccc(-c2ccc(-c3ccc(C(F)(F)F)cc3)cc2)n1` [Compound 2.2, 2-(2,6-difluorophenyl)-4-(4′-trifluoromethylbiphenyl-4-yl)-pyrimidine] displayed a melting point of 141 to 142 °C.

Regarding `N#CN1C(c2ccc(Br)cc2)=CC=NC1c1c(F)cccc1F` (stereo not drawn) [Compound 3.355, 4-(4-bromophenyl)-3-cyano-2-(2,6-difluorophenyl)-pyrimidine], the melting point was 146 to 148 °C.

Turning to `Fc1cccc(F)c1-c1ncc(-c2ccc(-c3ccc(OC(F)(F)F)cc3)cc2)cn1` [Compound 1.19, 2-(2,6-difluorophenyl)-5-(4′-trifluoromethoxybiphenyl-4-yl)-pyrimidine], the melting point fell in the range of 215 to 216 °C.

`CCOc1nc(-c2c(F)cccc2F)ncc1-c1ccc(-c2ccc(C(F)(F)F)cc2)cc1` [Compound 1.59] returned a melting point of 170 to 172 °C.

Take `CN(C)c1nc(-c2c(F)cccc2F)ncc1-c1ccc(-c2ccc(OC(F)(F)F)cc2)cc1` [Compound 1.69]: the melting point is 146 to 147 °C.

As for `Fc1cccc(F)c1C1N=CC=C(c2ccc(Br)cc2)N1Cl` (stereo not drawn) [Compound 3.354, 4-(4-bromophenyl)-2-(2,6-difluorophenyl)-3-chloropyrimidine], the melting point is 146 to 148 °C.

In turn, `CCSc1nc(-c2c(F)cccc2F)ncc1-c1ccc(-c2ccc(C(F)(F)F)cc2)cc1` [Compound 1.73] had a melting point of 145 to 146 °C.

On to `CCOc1nc(-c2c(F)cccc2F)ncc1-c1ccc(-c2ccc(OC(F)(F)F)cc2)cc1` [Compound 1.58], for which the melting point lay in the range of 146 to 147 °C.

In the case of `Fc1cccc(F)c1-c1nccc(-c2ccc(-c3ccc(Cl)cc3Cl)cc2)n1` [Compound 2.9], the melting point is 86 to 87 °C.

`Fc1cccc(F)c1-c1nccc(-c2ccc(Br)cc2)n1` [Compound P1.5, 4-(4-bromophenyl)-2-(2,6-difluorophenyl)-pyrimidine] had a melting point of 130 to 131 °C.

Molecule `Fc1ccc(-c2ccc(-c3ccnc(-c4c(F)cccc4F)n3)cc2)cc1Cl` [Compound 2.1] returned a melting point of 133 to 134 °C.

As to `Fc1cccc(F)c1-c1ncc(-c2ccc(-c3ccccc3C(F)(F)F)cc2)cn1` [Compound 1.24], the melting point lay in the range of 100 to 102 °C.

On to `Fc1cccc(F)c1-c1nccc(-c2ccc(-c3cc(Cl)cc(Cl)c3)cc2)n1` [Compound 2.5], for which the melting point lay within 116 to 126 °C.

In the case of `COc1ccc(-c2ccc(-c3cnc(-c4c(F)cccc4Cl)nc3)cc2)cc1` [Compound 1.15], the melting point lay in the range of 176 to 179 °C.

For `Fc1ccc(-c2ccc(-c3cnc(-c4c(F)cccc4F)nc3)cc2)cc1` [Compound 1.23], the melting point was 212 to 213 °C.

For the molecule `Fc1cccc(F)c1-c1ncc(-c2ccc(-c3cccc(Cl)c3)cc2)cn1` [Compound 1.37], the melting point was in the range of 178 to 179 °C.

Molecule `COc1ccc(-c2ccc(-c3cnc(-c4c(Cl)cccc4Cl)nc3)cc2)cc1` [Compound 1.7] yielded a melting point of 242 to 244 °C.

Take `Fc1cccc(F)c1-c1nccc(-c2ccc(-c3ccc(-c4ccccc4)cc3)cc2)n1` [Compound 2.7]: the melting point was in the range of 258 to 259 °C.

The molecule `CCNc1nc(-c2c(F)cccc2F)ncc1-c1ccc(-c2cc(Cl)cc(Cl)c2)cc1` [Compound 1.68] had a melting point of 202 to 203 °C.

As for `CN(C)c1nc(-c2c(F)cccc2F)ncc1-c1ccc(-c2ccc(C(F)(F)F)cc2)cc1` [Compound 1.70], the melting point lay within 166 to 168 °C.

In turn, `Fc1cccc(F)c1-c1ncc(-c2ccc(Br)cc2)cn1` [Compound P1.3, 5-(4-bromophenyl)-2-(2,6-difluorophenyl)-pyrimidine] came in with a melting point of 193 to 194 °C.

Consider `CCSc1nc(-c2c(F)cccc2F)ncc1-c1ccc(-c2cc(Cl)cc(Cl)c2)cc1` [Compound 1.74], for which the melting point fell in the range of 154 to 156 °C.

`CN(C)c1nc(-c2c(F)cccc2F)ncc1-c1ccc(-c2cc(Cl)cc(Cl)c2)cc1` [Compound 1.71]: the melting point fell in the range of 200 to 202 °C.

As to `FC(F)(F)Oc1ccc(-c2ccc(-c3cnc(-c4c(Cl)cccc4Cl)nc3)cc2)cc1` [Compound 1.4], the melting point was in the range of 179 to 181 °C.

For `COc1ccccc1-c1ccc(-c2cnc(-c3c(F)cccc3F)nc2)cc1` [Compound 1.20], the melting point lay in the range of 150 to 151 °C.

In turn, `Fc1cccc(F)c1-c1nccc(-c2ccc(-c3ccccc3C(F)(F)F)cc2)n1` [Compound 2.12] yielded a melting point of 179 to 180 °C.

Molecule `Fc1ccc(-c2ccc(-c3cnc(-c4c(F)cccc4Cl)nc3)cc2)cc1Cl` [Compound 1.11] came in with a melting point of 186 to 189 °C.

Regarding `Fc1ccc(-c2ccc(-c3ccnc(-c4c(F)cccc4F)n3)cc2)cc1` [Compound 2.8], the melting point was 145 to 146 °C.

With `Fc1cccc(F)c1-c1ncc(-c2ccc(-c3ccc(Cl)cc3)cc2)cn1` [Compound 1.25], the melting point is 220 to 222 °C.

The molecule `CCSc1nc(-c2c(F)cccc2F)ncc1-c1ccc(-c2ccc(OC(F)(F)F)cc2)cc1` [Compound 1.72] gave a melting point of 127 to 128 °C.

`Fc1cccc(F)c1-c1nccc(-c2ccc(-c3cccc(Cl)c3)cc2)n1` [Compound 2.10] showed a melting point of 82 to 83 °C.

Consider `Fc1cccc(F)c1-c1nccc(-c2ccc(-c3ccc(Cl)c(Cl)c3)cc2)n1` [Compound 2.6], for which the melting point was 134 to 140 °C.

`Fc1cccc(F)c1-c1ncc(-c2ccc(-c3ccc(C(F)(F)F)cc3)cc2)cn1` [Compound 1.2] gave a melting point of 252 to 254 °C.

For `Fc1cccc(F)c1-c1ncc(-c2ccc(-c3ccc(-c4ccccc4)cc3)cc2)cn1` [Compound 1.22], the melting point was over 260 °C.

In turn, `Clc1ccc(-c2ccc(-c3cnc(-c4c(Cl)cccc4Cl)nc3)cc2)cc1Cl` [Compound 1.6] displayed a melting point of 224 to 226 °C.

In turn, `FC(F)(F)c1ccc(-c2ccc(-c3cnc(-c4c(Cl)cccc4Cl)nc3)cc2)cc1` [Compound 1.3] displayed a melting point of 207 to 208 °C.

Take `CCOc1nc(-c2c(F)cccc2F)ncc1-c1ccc(-c2cc(Cl)cc(Cl)c2)cc1` [Compound 1.60]: the melting point was in the range of 154 to 155 °C.

For the molecule `Fc1cccc(Cl)c1-c1ncc(-c2ccc(-c3ccc(OC(F)(F)F)cc3)cc2)cn1` [Compound 1.12], the melting point is 160 to 163 °C.

As to `Fc1cccc(Cl)c1-c1ncc(-c2ccc(-c3cccc(C(F)(F)F)c3)cc2)cn1` [Compound 1.14], the melting point lay in the range of 187 to 190 °C.

For the molecule `Clc1ccc(-c2ccc(-c3cnc(-c4c(Cl)cccc4Cl)nc3)cc2)cc1` [Compound 1.8], the melting point fell in the range of 205 to 220 °C.

The molecule `Fc1cccc(F)c1-c1nccc(-c2ccc(-c3ccc(Cl)cc3)cc2)n1` [Compound 2.11] yielded a melting point of 167 to 168 °C.
